# Data: patent US20260217701A1, “SELECTIVE BET INHIBITORS AND USES THEREOF” (Tay Therapeutics Limited, priority 2022, published 2026)
# Several values for one entry are separate records, joined by “and”; a condition that tells them apart may be missing. Equal values may be shown once. Read-outs that look alike come from different tables or passages of the source. Marks after values point to notes of the source that are not given here.
# Legend:
# [1] = UUO study: plasma concentration of Compound A; type: in vivo, rats; conditions: for concentration at 4 h: rat, plasma, oral, 10 mg/kg
# anti-dsDNA antibodies = experiment: SLE (lupus) model: anti-dsDNA antibodies in serum by ELISA; type: in vivo, MRL/MpJ-Faslpr mice
# Description: Female MRL/MpJ-Faslpr mice (The Jackson Laboratory) were used to assess the efficacy of Compound A in treating lupus. Starting when animals were 10 weeks of age, protein concentration in urine was measured using urine dipsticks.
# At the start of the study, each group in the study had two animals that were 9 weeks old, and all others were 10 weeks old. Dosing of all animals with the test compounds began when the older animals were 11 weeks old. […] […] Dosing was at a consistent time each dosing day throughout the study.
# Compound A may be formulated as illustrated in Experimental Method A (see Table 2E.). […] A stock solution of Compound A in DMSO (stock solution concentration of Compound A of 40 mg/mL) was prepared and aliquots for weekly preparations were frozen at −20° C. On each preparation day, a stock solution aliquot was thawed and diluted with other vehicle components to the desired concentration. Formulated Compound A and vehicle were at room temperature for dosing.
# The study began when the older animals were 11 weeks old, and concluded when the older animals were 19 weeks old. Body weight was recorded once a week, with the exception of two weight measurements taken the first week of the study (when the older animals were 11 weeks old). Proteinuria was measured in the urine of animals with urine dipsticks once a week, starting when the older animals were 10 weeks old. […] Blood samples were taken retro-orbitally at the start of the study to establish a baseline (15 animals, 3 per group), and when the older animals were 16 weeks (all animals) and when animals were 19 weeks (all animals) at the conclusion of the study. Blood urea nitrogen (BUN) was measured in all animals at study termination in blood samples. After blood collection, animals were euthanized, perfused with PBS, and the left kidneys were collected and weighed and fixed in 10% buffered formalin. Left kidneys were then processed to a formalin-fixed, paraffin-embedded (FFPE) block, and histology was analyzed in Periodic Acid-Schiff-stained sections (1 section per slide), using the criteria described in Alperovich et al., Lupus, 16:18-24 (2007). Right kidneys were weighed and snap-frozen at −80° C. Spleens were also collected and weighed. SLE in animals treated with a BET inhibitor and vehicle.
# Anti-dsDNA antibody test measures the amount of antibody to double-stranded deoxyribonucleic acid (anti-dsDNA) that may be present in the blood. Anti-dsDNA antibodies are highly specific markers of SLE as these antibodies are not thought to be present in other kinds of autoimmune disorder.
# [2] = test system: idiopathic pulmonary fibrosis (bleomycin); experiment: Bleomycin IPF model: functional lung volume by micro-CT; type: in vivo, C57BI/6J mice; parameters: Functional Lung Volume, Mean: unit not given here; conditions: Day 21
# Description: Animals were acclimated for two weeks prior to study initiation, and were randomized into the experimental groups outlined in Table 32. Intratracheal (IT) administration of Bleo or PBS control was conducted at the start of the study (Day 0). […] Following administration of Bleo, animals (n=10/group) were included in the study if they met the following guidelines on Day 7: […] Micro-CT imaging was also performed on Day 7 to determine relative fibrosis and on Day 21. […] Images were acquired with a respiratory gated technique with the following parameters: X-ray tube voltage: 90 KV; X-ray tube current: 88 μA; total scan time: 4 minutes. The system was calibrated monthly with standard phantoms for noise, uniformity, low contrast, and resolution to ensure consistency.
# [3] = test system: IL-22, IFNγ, TNF, IL-17A, IL-12/IL-23p40; experiment: EAE study: serum cytokine analysis (Luminex); type: in vivo, C57BI/6 mice
# Description: Experimental Method H: EAE in animals treated with a BET inhibitor and vehicle. Animals were assigned to the groups outlined in Table 38.
# Compound A may be formulated as illustrated in Experimental Method A (see Table 2E.). A 40 mg/mL stock solution of Compound A in DMSO was prepared and aliquots stored at −20° C. On each day of preparation an e.g., 0.75 mL aliquot of thawed stock was diluted with an equal volume of DMSO. The remaining vehicle components were added to provide the highest dose and then diluted with vehicle to provide lower doses. A 30 mg/mL stock solution of FTY720 in ethanol was prepared and stored at −20° C. Daily, the stock solution was diluted with room temperature water to a final dosing concentration of 0.6 mg/mL. Formulated Compound A, FTY720 and vehicle were each at room temperature for dosing.
# Female C57BI/6 mice (9 weeks old) were acclimated for seven days prior to study initiation. On Day-1, animals were assigned to groups in a balanced manner to achieve similar average weights across the different groups. Chronic EAE was induced in female C57BI/6 mice following immunization with an emulsion of MOG35-55/CFA on Day 0, followed by an injection of pertussis toxin two hours after the initial immunization. On Day 1, a second injection of pertussis toxin was administered 24 hours after the initial immunization. Mice were injected subcutaneously at two sites on the back with the MOG35-55/CFA emulsion (Hooke Kit™ MOG35-55/CFA Emulsion PTX). The first injection site was located approximately 1 cm caudal of the neckline (upper back), and the second injection site was approximately 2 cm cranial of the base of the tail (lower back). The injection volume was 0.1 mL for each injection. The pertussis toxin was administered at the described times through intraperitoneal injection at a concentration of 85 ng/dose for both injections.
# On Day 28, all surviving mice except those in the FTY720 group had blood collected via retro-orbital sinus into serum separator tubes. Serum was isolated, frozen on dry ice, and stored at −80° C. for cytokine analysis. Cytokine analysis was performed using Luminex in serum samples, and the cytokines IL-22, IFNγ, TNF, IL-17A, IL-12/IL-23p40 were assessed.
# [4] = Rat PK study #4 (Compound A PO 0.2 and 1.0 mg/kg, propylene glycol formulation); type: in vivo, Lewis rats; conditions: 1 mg/kg and 10 mg/kg doses, rats
smiles,measurement,setting,value
"Cn1cc(-c2ccccc2)c(-c2cn(C)c(=O)c3[nH]c(-c4cnn(C(F)(F)F)c4)cc23)cc1=O [Compound A, 6-methyl-4-(1-methyl-2-oxo-5-phenyl-1,2-dihydropyridin-4-yl)-2-(1-(trifluoromethyl)-1H-pyrazol-4-yl)-1,6-dihydro-7H-pyrrolo[2,3-c]pyridin-7-one]",Concentration,"[1]; UUO + Compound A, male SD rats, time 4 h, individual Test Subjects 1-8",220 ng/mL and 318 ng/mL and 133 ng/mL and 215 ng/mL and 132 ng/mL and 194 ng/mL and 198 ng/mL and 195 ng/mL
same,concentration at 4 h,"[1]; male, Sprague-Dawley, UUO + Compound A, male SD rats, time 4 h, mean of 8 test subjects, read-out: Concentration, Mean",201 ng/mL
same,concentration at 4 h,"[1]; po, four hours after final treatment, read-out: Mean plasma concentration",201 ng/mL
same,"Anti-dsDNA Antibodies in serum, mean","anti-dsDNA antibodies; Compound A 1 mg/kg PO QD, Week 16",240 units/mL
same,"Anti-dsDNA Antibodies in serum, mean","anti-dsDNA antibodies; Compound A 1 mg/kg PO QD, Week 19",149 units/mL
same,"Anti-dsDNA Antibodies in serum, mean","anti-dsDNA antibodies; Compound A 3 mg/kg PO QD, Week 16",112 units/mL
same,"Anti-dsDNA Antibodies in serum, mean","anti-dsDNA antibodies; Compound A 3 mg/kg PO QD, Week 19",94 units/mL
same,"Anti-dsDNA Antibodies in serum, mean","anti-dsDNA antibodies; Compound A 10 mg/kg PO QD, Week 16",47 units/mL
same,"Anti-dsDNA Antibodies in serum, mean","anti-dsDNA antibodies; Compound A 10 mg/kg PO QD, Week 19",57 units/mL
same,Anti-dsDNA antibodies in serum,"anti-dsDNA antibodies; Week 16, 1 mg/mL",did not appear to be effective
same,Anti-dsDNA antibodies in serum,"anti-dsDNA antibodies; Week 16 and Week 19, 3 mg/mL",positive effect in reducing levels
same,Anti-dsDNA antibodies in serum versus Vehicle group,"anti-dsDNA antibodies; Week 16 and Week 19, Compound A (10 mg/mL) and Cyclophosphamide",effective in reducing levels to well below that seen with the Vehicle administered group
same,Anti-dsDNA antibodies in serum,"anti-dsDNA antibodies; Week 19, 1 mg/mL",effective in reducing the levels
same,"Functional Lung Volume, Mean",[2]; Bleo + Compound A (1 mg/kg) OG QOD from D7,283.165
same,"Functional Lung Volume, Mean",[2]; Bleo + Compound A (3 mg/kg) OG QOD from D7,343.5975
same,"Functional Lung Volume, Mean",[2]; Bleo + Compound A (10 mg/kg) OG QOD from D7,452.7838
same,Mean improvement in functional lung volume compared to Group 2,"[2]; Group 5, 10 mg/kg",~52.7%
same,IFNγ Mean Concentration (pg/mL) and (SEM),"[3]; Compound A 1 mg/kg, Day 28",1.9 (0.8) pg/mL
same,IL-12/IL-23p40 Mean Concentration (pg/mL) and (SEM),"[3]; Compound A 1 mg/kg, Day 28",34.7 (4.8)* pg/mL
same,IL-17A Mean Concentration (pg/mL) and (SEM),"[3]; Compound A 1 mg/kg, Day 28",0.5 (0.3) pg/mL
same,IL-22 Mean Concentration (pg/mL) and (SEM),"[3]; Compound A 1 mg/kg, Day 28",3.5 (1.4) pg/mL
same,TNF Mean Concentration (pg/mL) and (SEM),"[3]; Compound A 1 mg/kg, Day 28",0.8 (0.4) pg/mL
same,IFNγ Mean Concentration (pg/mL) and (SEM),"[3]; Compound A 3 mg/kg, Day 28",1.8 (0.4)* pg/mL
same,IL-12/IL-23p40 Mean Concentration (pg/mL) and (SEM),"[3]; Compound A 3 mg/kg, Day 28",27.7 (4.9)** pg/mL
same,IL-17A Mean Concentration (pg/mL) and (SEM),"[3]; Compound A 3 mg/kg, Day 28",1.6 (0.9) pg/mL
same,IL-22 Mean Concentration (pg/mL) and (SEM),"[3]; Compound A 3 mg/kg, Day 28",6.1 (3.0) pg/mL
same,TNF Mean Concentration (pg/mL) and (SEM),"[3]; Compound A 3 mg/kg, Day 28",1.4 (0.4) pg/mL
same,IFNγ Mean Concentration (pg/mL) and (SEM),"[3]; Compound A 10 mg/kg, Day 28",0.6 (0.1)*** pg/mL
same,IL-12/IL-23p40 Mean Concentration (pg/mL) and (SEM),"[3]; Compound A 10 mg/kg, Day 28",17.4 (1.5)*** pg/mL
same,IL-17A Mean Concentration (pg/mL) and (SEM),"[3]; Compound A 10 mg/kg, Day 28",0.4 (0.3) pg/mL
same,IL-22 Mean Concentration (pg/mL) and (SEM),"[3]; Compound A 10 mg/kg, Day 28",3.0 (0.7) pg/mL
same,TNF Mean Concentration (pg/mL) and (SEM),"[3]; Compound A 10 mg/kg, Day 28",0.4 (0.1) pg/mL
same,"Concentration of IL-22, TNF, and IL-17A relative to vehicle",[3]; Day 28,nor were significant changes measured
same,Concentration of IL-12/IL23p40,"[3]; Day 28, 1 mg/kg, 3 mg/kg, and 10 mg/kg",dose dependent significant decreases
same,IFNγ concentrations,"[3]; Day 28, 3 mg/kg and 10 mg/kg",dose dependent significant decrease
same,duration of exposure above the free EC50 BD2 BRD4,[4],24 h
